Values quoted from earlier work in patent US20260027218A1, “STAR-SHAPED GRAFT COPOLYMERS” (POLYPEPTIDE THERAPEUTIC SOLUTIONS, S.L., priority 2022, published 2026).

log P: 2.98
Structure (SMILES): CCN(CC)c1ccc2nc3c4ccccc4c(=O)cc-3oc2c1 [Nile Red]
